Like-named read-outs stand apart in the source and are kept apart here.
Key:
[1] = molecular target: T1, human muscarinic M1 receptor (Homo sapiens, UniProt P11229); test: Alphascreen Surefire phospho-ERK1/2 functional assay, M1; assay type: cell-based; details: for EC50: agonist 5 min, 37° C.; for Emax: CHO
T1 sequence (P11229 1-460): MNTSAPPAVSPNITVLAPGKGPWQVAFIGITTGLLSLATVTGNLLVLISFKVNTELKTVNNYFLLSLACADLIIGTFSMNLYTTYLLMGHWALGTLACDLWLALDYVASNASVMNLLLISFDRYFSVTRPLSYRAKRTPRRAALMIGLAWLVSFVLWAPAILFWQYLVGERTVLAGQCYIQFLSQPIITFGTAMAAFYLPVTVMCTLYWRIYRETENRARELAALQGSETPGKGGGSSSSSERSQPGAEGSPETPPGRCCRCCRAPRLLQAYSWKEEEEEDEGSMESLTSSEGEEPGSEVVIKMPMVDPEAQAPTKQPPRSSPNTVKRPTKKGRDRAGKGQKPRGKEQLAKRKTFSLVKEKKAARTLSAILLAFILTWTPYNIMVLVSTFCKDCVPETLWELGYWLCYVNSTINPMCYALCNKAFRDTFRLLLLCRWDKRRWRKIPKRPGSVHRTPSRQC
Description: (§1) ERK1/2 phosphorylation is a downstream consequence of both Gq/11 and Gi/o protein coupled receptor activation, making it highly suitable for the assessment of M1, M3 (Gq/11 coupled) and M2, M4 receptors (Gi/o coupled), rather than using different assay formats for different receptor subtypes. CHO cells stably expressing the human muscarinic M1, M2, M3 or M4 receptor were plated (25K/well) onto 96-well tissue culture plates in MEM-alpha+10% dialysed FBS. Once adhered, cells were serum-starved overnight. Agonist stimulation was performed by the addition of 5 μL agonist to the cells for 5 min (37° C.). Media was removed and 50 μL of lysis buffer added. After […], a 4 μL sample was transferred to 384-well plate and 7 μL of detection mixture added.
(§2) Isomer assignment (Isomer 1, Isomer 2, etc.) is based on the retention time of the compound using the separation technique that was performed in the final purification step. By implication, this could be reversed phase HPLC, chiral HPLC or chiral SFC retention time, and this will vary from compound to compound.

[2] = molecular target: T2, human muscarinic M4 receptor (Homo sapiens, UniProt P08173); test: Alphascreen Surefire phospho-ERK1/2 functional assay, M4; assay type: cell-based; details: for EC50 / % Emax cf. ACh, M4: CHO cells stably expressing human M4; for EC50: agonist 5 min, 37° C., read-out: pEC50 M4 (converted); for Emax: CHO
T2 construct: expressed in transfected cells
T2 sequence (P08173 1-479): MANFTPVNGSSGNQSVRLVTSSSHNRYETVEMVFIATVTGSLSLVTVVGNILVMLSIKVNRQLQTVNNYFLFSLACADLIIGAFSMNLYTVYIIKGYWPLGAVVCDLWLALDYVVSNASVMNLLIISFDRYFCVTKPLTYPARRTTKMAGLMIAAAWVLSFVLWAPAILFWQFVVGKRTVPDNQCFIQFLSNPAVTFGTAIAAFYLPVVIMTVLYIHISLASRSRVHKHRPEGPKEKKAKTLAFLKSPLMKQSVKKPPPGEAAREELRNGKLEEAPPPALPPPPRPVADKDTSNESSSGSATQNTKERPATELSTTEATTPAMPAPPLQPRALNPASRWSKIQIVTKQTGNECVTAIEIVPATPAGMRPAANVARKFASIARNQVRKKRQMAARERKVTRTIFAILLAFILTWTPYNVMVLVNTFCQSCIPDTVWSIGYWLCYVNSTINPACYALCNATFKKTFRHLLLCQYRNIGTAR
Description: as §1, §2

[3] = CHO cells stably expressing human M1, read-out: pEC50 M1 (converted)
[4] = read-out: % Emax cf. ACh, M1, CHO cells stably expressing human M1, Emax relative to ACh
[5] = read-out: % Emax cf. ACh, M4, CHO cells stably expressing human M4, Emax relative to ACh

| SMILES | EC50 [1, 3] | EC50 [2] | Emax [1, 4] | Emax [2, 5] | % Emax cf. ACh, M1 ([1]; CHO cells stably expressing human M1, Emax relative to ACh, listed as 4-5 Isomer 2) | % Emax cf. ACh, M4 ([2]; Emax relative to ACh, listed as 4-5 Isomer 2) | % Emax cf. ACh, M1 ([1]; CHO cells stably expressing human M1, Emax relative to ACh, listed as 4-9 Isomer 2) | % Emax cf. ACh, M4 ([2]; Emax relative to ACh, listed as 4-9 Isomer 2) | Emax ([1]; read-out: % Emax cf. ACh, M1) | Emax ([2]; read-out: % Emax cf. ACh, M4) | EC50 ([1]; pEC50 M1, CHO cells stably expressing human M1) |
| --- | --- | --- | --- | --- | --- | --- | --- | --- | --- | --- | --- |
| CCOC(=O)N1C2CCC1CC(N1CC(CC(=O)N(CC)C(C)C)C1)C2 (mixture of isomers) [Example 1-2 Isomer mixture, Ethyl-3-(3-(2-(ethyl(isopropyl)amino)-2-oxoethyl)azetidin-1-yl)-8-azabicyclo[3.2.1]octane-8-carboxylate] | 182 nM | > 20000 nM | – | – | – | – | – | – | 100% | 7% | – |
| CCOC(=O)N1C2CCC1CC(N1CC(OC(=O)N3CCCOCC3)C1)C2 (mixture of isomers) [Example 5-2 Isomer mixture, 1-(8-(Ethoxycarbonyl)-8-azabicyclo[3.2.1]octan-3-yl)azetidin-3-yl 1,4-oxazepane-4-carboxylate] | 2240 nM | > 20000 nM | – | – | – | – | – | – | 92% | 19% | – |
| CCOC(=O)N1C2CCC1CC(N1CC(CC(=O)N3CCC34CCC4)C1)C2 (single isomer, unassigned) [Example 1-3 Isomer 2, Ethyl-3-(3-(2-oxo-2-(1-azaspiro[3.3]heptan-1-yl)ethyl)azetidin-1-yl)-8-azabicyclo[3.2.1]octane-8-carboxylate] | 115 nM | > 20000 nM | – | – | – | – | – | – | 103% | 19% | – |
| CCOC(=O)N1C2CCCC1CC(N1CC(CC(=O)N(CC)CC)C1)C2 (single isomer, unassigned) [Example 3-1 Isomer 1, Ethyl-3-(3-(2-(diethylamino)-2-oxoethyl)azetidin-1-yl)-9-azabicyclo[3.3.1]nonane-9-carboxylate] | 813 nM | > 20000 nM | – | – | – | – | – | – | 106% | 23% | – |
| CCOC(=O)N1C2CCCC1CC(N1CC(CC(=O)N3CCCC3)C1)C2 (single isomer, unassigned) [Example 3-2 Isomer 1, Ethyl-3-(3-(2-oxo-2-(pyrrolidin-1-yl)ethyl)azetidin-1-yl)-9-azabicyclo[3.3.1]nonane-9-carboxylate] | 4790 nM | 933 nM | – | – | – | – | – | – | 68% | 68% | – |
| CCN(CC)C(=O)OC1CN(C2CCC3(C2)CN(C(=O)OC)C3)C1 (single isomer, unassigned) [Example 4-6 Isomer 1, Methyl 6-(3-((diethylcarbamoyl)oxy)azetidin-1-yl)-2-azaspiro[3.4]octane-2-carboxylate] | 631 nM | 1120 nM | 92% | 33% | – | – | – | – | – | – | – |
| CCOC(=O)N1C2CCCC1CC(N1CC(OC(=O)N(CC)CC)C1)C2 (single isomer, unassigned) [Example 7-1 Isomer 1, Ethyl 3-(3-((diethylcarbamoyl)oxy)azetidin-1-yl)-9-azabicyclo[3.3.1]nonane-9-carboxylate] | – | 2290 nM | – | – | – | – | – | – | 88% | 29% | 1290 nM |
| CCOC(=O)N1C2COCC1CC(N1CC(OC(=O)N3CCCCCC3)C1)C2 (single isomer, unassigned) [Example 8-1 Isomer 1, Ethyl 7-(3-((azepane-1-carbonyl)oxy)azetidin-1-yl)-3-oxa-9-azabicyclo[3.3.1]nonane-9-carboxylate] | 257 nM | 1860 nM | – | – | – | – | – | – | 104% | 43% | – |

Further lines, with some results ahead:

| EC50 [1, 3] | EC50 [2] | Emax [1, 4] | Emax [2, 5] | % Emax cf. ACh, M1 ([1]; CHO cells stably expressing human M1, Emax relative to ACh, listed as 4-5 Isomer 2) | % Emax cf. ACh, M4 ([2]; Emax relative to ACh, listed as 4-5 Isomer 2) | % Emax cf. ACh, M1 ([1]; CHO cells stably expressing human M1, Emax relative to ACh, listed as 4-9 Isomer 2) | % Emax cf. ACh, M4 ([2]; Emax relative to ACh, listed as 4-9 Isomer 2) | SMILES | Emax ([1]; read-out: % Emax cf. ACh, M1) | Emax ([2]; read-out: % Emax cf. ACh, M4) | EC50 ([1]; pEC50 M1, CHO cells stably expressing human M1) |
| --- | --- | --- | --- | --- | --- | --- | --- | --- | --- | --- | --- |
| 1020 nM | > 20000 nM | 58% | 9% | – | – | – | – | CCOC(=O)N1CC2CCC1CC2N1CC(CC(=O)N2CCCOCC2)C1 (single isomer, unassigned) [Example 2-4 Isomer 1, Ethyl-5-(3-(2-(1,4-oxazepan-4-yl)-2-oxoethyl)azetidin-1-yl)-2-azabicyclo[2.2.2]octane-2-carboxylate] | – | – | – |
| 372 nM | 1020 nM | 104% | 46% | – | – | – | – | CCOC(=O)N1CCC2(CC(N3CC(OC(=O)N4CCCOCC4)C3)C2)C1 (single isomer, unassigned) [Example 4-3 Isomer 2, 1-(6-(Ethoxycarbonyl)-6-azaspiro[3.4]octan-2-yl)azetidin-3-yl 1,4-oxazepane-4-carboxylate] | – | – | – |
| 1120 nM | > 20000 nM | – | – | 44% | 10% | – | – | CCOC(=O)N1CC2(CCC(N3CC(OC(=O)N(CC)CC)C3)C2)C1 (single isomer, unassigned) [Example 4-5 Isomer 2, Ethyl 6-(3-((diethylcarbamoyl)oxy)azetidin-1-yl)-2-azaspiro[3.4]octane-2-carboxylate] | – | – | – |
| 5620 nM | 389 nM | – | – | – | – | 84% | 85% | CCOC(=O)N1CC2(CCC(N3CC(OC(=O)N4CCCOCC4)C3)C2)C1 (single isomer, unassigned) [Example 4-9 Isomer 2, 1-(2-(Ethoxycarbonyl)-2-azaspiro[3.4]octan-6-yl)azetidin-3-yl 1,4-oxazepane-4-carboxylate] | – | – | – |
| 1050 nM | > 20000 nM | 65% | 9% | – | – | – | – | CCOC(=O)N1CC2CCC1CC2N1CC(OC(=O)N(CC)CC)C1 (single isomer, unassigned) [Example 6-1 Isomer 1, Ethyl 5-(3-((diethylcarbamoyl)oxy)azetidin-1-yl)-2-azabicyclo[2.2.2]octane-2-carboxylate] | – | – | – |
| 6920 nM | 646 nM | 83% | 55% | – | – | – | – | CCOC(=O)N1CC2CCC1CC2N1CC(OC(=O)N2CCCC2)C1 (single isomer, unassigned) [Example 6-2 Isomer 1, Ethyl 5-(3-((pyrrolidine-1-carbonyl)oxy)azetidin-1-yl)-2-azabicyclo[2.2.2]octane-2-carboxylate] | – | – | – |
| 355 nM | 1620 nM | 92% | 35% | – | – | – | – | CCOC(=O)N1CC2CCC1CC2N1CC(OC(=O)N2CCCCC2)C1 (single isomer, unassigned) [Example 6-3 Isomer 1, Ethyl 5-(3-((piperidine-1-carbonyl)oxy)azetidin-1-yl)-2-azabicyclo[2.2.2]octane-2-carboxylate] | – | – | – |
| 813 nM | > 20000 nM | 58% | 27% | – | – | – | – | CCOC(=O)N1CC2CCC1CC2N1CC(OC(=O)N2CCCOCC2)C1 (single isomer, unassigned) [Example 6-5 Isomer 1, 1-(2-(Ethoxycarbonyl)-2-azabicyclo[2.2.2]octan-5-yl)azetidin-3-yl 1,4-oxazepane-4-carboxylate] | – | – | – |
| 832 nM | 1700 nM | 83% | 57% | – | – | – | – | CCOC(=O)N1CC2(CC(N3CC(OC(=O)N(CC)CC)C3)C2)C1 [Example 4-1, Ethyl 6-(3-((diethylcarbamoyl)oxy)azetidin-1-yl)-2-azaspiro[3.3]heptane-2-carboxylate] | – | – | – |

From patent publication US11945801B2, “Bicyclic aza compounds as muscarinic M1 and/or M4 receptor agonists” (Heptares Therapeutics Limited, priority 2018, dated 2024)
